The source of these data is patent US20090253794A1, “Fibroblast Activator, Collagen Production Promoter, Collagen Contraction Promoter, Hyaluronic Acid Production Promoter, ATP Production Promoter, Melanin Formation Inhibitor, and Agent for External Application to the Skin” (priority 2005, published 2009).

Entries after “also recorded” stand apart in the source; their conditions may differ.

The test system of one series is B16 melanoma cells. Nature of the series: melanin formation suppression test, visual whitening and cell mass volume. Format: cell-based, mouse. Further details: key to level of whitening: whitening high→++; whitening moderate→+; somewhat whitened→+−; no whitening→−. The settings on record: 5 days; for level of whitening: visual evaluation; for change in cell mass volume: visual, cytotoxicity index. Here is the method: A melanin formation suppression test was performed as follows using mouse melanoma cells. First, 2×10^4 B16 melanoma cells were plated in a 35 mm diameter dish containing Eagle's minimum nutrition medium (3 ml) supplemented with 10% (v/v) fetal bovine serum, and cultured in a carbon dioxide incubator adjusted to 5% (v/v) carbon dioxide gas at 37° C. for about 24 hr. Then, pure water or a sample dissolved in pure water was added thereto to a final concentration of 0.1 mM, 1.0 mM or 10 mM. As a positive control, kojic acid (manufactured by Sigma Ltd.) was added to the same concentration. The cells were cultured for 5 more days under the same conditions, treated with trypsin, and centrifuged to collect the cells in a 1.5 ml Eppendorf. The level of whitening of the cells was visually evaluated, and indicated: whitening high→++; whitening moderate→+; somewhat whitened→+−; no whitening→−. Simultaneously, changes in the cell mass volume was visually evaluated and used as a cytotoxicity index.

For a further series, the system named is human normal melanocytes. As to the kind of experiment: melanin formation suppression test in human melanocytes (L-DOPA, absorbance 495 nm). Format: cell-based. The settings on record: 5 days, relative value, without addition of sample = 100. The procedure:
A melanin formation suppression test was performed using human melanocytes (manufactured by KURABO INDUSTRIES LTD.). That is, human normal melanocytes amplified in Medium 254 medium (human melanocyte medium added with HMGS, manufactured by KURABO INDUSTRIES LTD.) was added to a 96 well plate at 10^4 cells per well, and cultured in a carbon dioxide incubator adjusted to 5% (v/v) carbon dioxide gas at 37° C. for about 24 hr. Then, pure water or a sample (conagenin) dissolved in pure water was added thereto to a final concentration of 0.1 mM, 1.0 mM or 10 mM. As a positive control, kojic acid (manufactured by Sigma Ltd.) was added to the same concentration. The cells were cultured for 5 more days under the same conditions. To the recovered cells was added 50 μl of cell suspension (PBS buffer containing Triton X-100 at 0.1% (v/v)). After thorough suspending, the suspension was stood at 4° C. for 1 hr. Thereto was added 50 μl of 10 mM L-DOPA (manufactured by Nacalai Tesque), and the mixture was incubated at 37° C. for 1 hr. Thereafter, the absorbance at 495 nm was measured by a plate reader (multiscanplus MKII, manufactured by Japan Flow Laboratory), and the melanin formation amount was measured (shown in a relative value to the value without addition of sample as 100).

As for `O=c1cc(CO)occ1O` [kojic acid, reference compound], the results for the level of whitening entry in the series on B16 melanoma cells (0.1 mM) and with B16 melanoma cells (1 mM) were “+−” and “+”, respectively. For the same compound, the “change in cell mass volume” value was “none” in the series on B16 melanoma cells (0.1 mM), “none” with B16 melanoma cells (1 mM) and “cell death occurred; also recorded: yes (cell death)” in the series with B16 melanoma cells (10 mM). In addition, the melanin formation amount in the series with human normal melanocytes (100 μM) is listed as 105; with human normal melanocytes (1 mM), 88.
